From patent publication US6399629B1, “Efflux pump inhibitors” (priority 1998, dated 2002) come the findings set out here.

For this experiment, the system named is Pseudomonas aeruginosa PAM1001. Nature of the experiment: microbe, parasite or virus in culture. Conditions: for Inhibition (%) of growth of P. aeruginosa PAM1001: Levofloxacin 0.25 μg/mL; for inhibition at 2.5 µg/mL / inhibition at 5 µg/mL / inhibition at 10 µg/mL / inhibition at 20 µg/mL / inhibition at 40 µg/mL: Pseudomonas aeruginosa, PAM1001, read-out: Inhibition (%) of growth of P. aeruginosa PAM1001. In kind it is cell-based. Here is the method:
For compounds labeled with the prefix ‘D’, potentiation is measured by inhibition of growth of Pseudomonas aeruginosa PAM1001 at varying concentrations of efflux pump inhibitors (EPIs) in the presence of levofloxacin (0.25 microg/mL). Bacteria are grown in Mueller Hinton Broth (MHB, Difco) with an initial inoculum of 1×10^6 CFU/mL. Kinetics of bacterial growth is monitored, during 18 h of incubation at 37° C., by measurement of the culture absorbance at 650 nm using a 96-well plate spectrophotometer (SpectraMax, Molecular Devices). The inhibitory effect of EPIs is expressed as a percentage of growth inhibition compared to a control bacterial culture grown in the presence of 0.25 microg/mL levofloxacin but without EPIs.

Where [1] appears, read: Concentration of Compound 2.5 μg/mL.
The mark [2] stands for this setting: Concentration of Compound 5 μg/mL.
[3] abbreviates: Concentration of Compound 10 μg/mL.
The mark [4] stands for this setting: Concentration of Compound 20 μg/mL.
The mark [5] stands for this setting: Concentration of Compound 40 μg/mL.

Structures can show the parent of a compound that is named as a salt.

Consider “trans-4-Glycylamino-L-Prolyl-4-(2-Chloro-5-Methylphenoxy)-piperidine Dihydrochloride [Compound D416]”, for which the “Inhibition (%) of growth of P. aeruginosa PAM1001” value under setting [1] worked out at 21%; the “Inhibition (%) of growth of P. aeruginosa PAM1001” value under setting [2] is given as 11%; the “Inhibition (%) of growth of P. aeruginosa PAM1001” value under setting [3] is recorded as 87%; the “Inhibition (%) of growth of P. aeruginosa PAM1001” value under setting [4] was 99%; the “Inhibition (%) of growth of P. aeruginosa PAM1001” value under setting [5] was determined as 99%.
Consider `Cl.Cl.NCC(=O)N[C@H]1CN[C@H](C=Cc2ccc(-c3ccccc3)cc2)C1` [Compound D801, (2S,4R)-4-Glycylamino-2-((E and Z)-4-Phenyistyryl)-pyrrolidine Dihydrochloride], for which the “Inhibition (%) of growth of P. aeruginosa PAM1001” value amounted to 8% under setting [1]; 63% under setting [2]; 99% under setting [3]; 99% under setting [4]; 99% under setting [5].
As for `NC[C@H](O)C(=O)N[C@H]1CN[C@H](C(=O)Nc2ccc(Oc3ccccc3)cc2)C1` [Compound D321, trans-4-((S)-3-Amino-2-Hydroxypropionylamino)-L-Proline 4-Phenoxyphenylamide Dihydrochloride], the inhibition at 2.5 µg/mL stood at 15%, the inhibition at 5 µg/mL is 14%, the inhibition at 10 µg/mL is 84% and the inhibition at 20 µg/mL is 100%. Moreover, the inhibition at 40 µg/mL came out at 100%.
As for `NCCC[C@H](N)C(=O)N1C[C@@H](NC(=O)CCCc2ccccc2)C[C@H]1C(=O)Nc1ccc2c(c1)CCC2` [Compound D122, L-Ornithyl-cis-4-(4-phenylbutanoyl)amino-L-proline 5-Indanylamide], the inhibition at 2.5 µg/mL worked out at 16%, the inhibition at 5 µg/mL was 99%, the inhibition at 10 µg/mL is 100% and the inhibition at 20 µg/mL was found to be 100%. For the same compound, the inhibition at 40 µg/mL is 99%.
With `N[C@H]1CN[C@H](C(=O)N2C[C@H](NC(=O)[C@H](O)CCc3ccccc3)C[C@H]2C(=O)Nc2cnc3ccccc3c2)C1` (mixture of isomers) [Compound D101, trans-4-Amino-L-Prolyl-trans-4-((R)-2-Hydroxy-4-Phenylbutyrylamino)-L-Proline 3-Quinolylamide Trihydrochloride], the inhibition at 20 µg/mL was found to be 20% and the inhibition at 40 µg/mL is 94%.
Take `NCC(=O)N[C@H]1CN[C@H](C(=O)Nc2ccc(Cc3ccccc3)cc2)C1` [Compound D308, trans-4-Glycylamino-L-Proline 4-Benzylphenylamide Dihydrochloride]: the inhibition at 2.5 µg/mL was found to be 16%, the inhibition at 5 µg/mL came out at 14%, the inhibition at 10 µg/mL turned out to be 98% and the inhibition at 20 µg/mL stood at 100%. The inhibition at 40 µg/mL was 100%.
On to `Cl.Cl.Cl.NCC(=O)NC1CNC(C(=O)Nc2cccc(NC(=O)CCc3ccccc3)n2)C1` [Compound D702, 2-(trans-4-Glycylamino-L-Prolylamino)-6-(4-Phenylpropanoylamino)Pyridine Trihydrochloride], for which the “Inhibition (%) of growth of P. aeruginosa PAM1001” value came to 19% under setting [1]; 15% under setting [2]; 82% under setting [3]; 100% under setting [4]; 100% under setting [5].
In the case of `Cc1cc(NC(=O)[C@@H](CCc2ccccc2)NC(=O)[C@@H]2C[C@@H](NC(=O)CN)CN2)ccc1Cl` [Compound D206, trans-4-Glycylamino-L-Prolyl-D-Homophenylalanine 4-Chloro-3-Methylphenylamide Dihydrochloride], the inhibition at 2.5 µg/mL came out at 16%, the inhibition at 5 µg/mL was 10%, the inhibition at 10 µg/mL is 100% and the inhibition at 20 µg/mL amounted to 99%. Further, the inhibition at 40 µg/mL was 100%.

For orientation: inhibition means the percentage by which the read-out fell short of the control.
